The results in this text go back to ChEMBL document CHEMBL3813649, “The influence of halogen substituents on the biological properties of sulfur-containing flavonoids” (2016).

Holding throughout (format): functional
Assay [1] relates to Staphylococcus aureus. As to the kind of experiment: Antibacterial activity against Staphylococcus aureus ATCC 25923 after 18 hrs by microbroth dilution assay. A general note: Broth dilution looks for growth in wells or tubes with falling amounts of substance.
The subject of assay [2] is Escherichia coli. As to the kind of experiment: Antibacterial activity against Escherichia coli ATCC 25922 after 18 hrs by microbroth dilution assay.
The test system of assay [3] is Staphylococcus aureus. As to the kind of experiment: Bactericidal activity against Staphylococcus aureus ATCC 25923 after 18 hrs by microbroth dilution assay. The conditions noted are these: ATCC 25923, 18 h.
Assay [4] deals with Escherichia coli. As to the kind of experiment: Bactericidal activity against Escherichia coli ATCC 25922 after 18 hrs by microbroth dilution assay. The following applies: ATCC 25922, 18 h.
The mark [5] stands for this setting: Staphylococcus aureus, ATCC 25923, 18 h, read-out: MIC.
[6] abbreviates: Escherichia coli, ATCC 25922, 18 h, read-out: MIC.

The structures appear in SMILES notation. In brackets after ≈: the same amount, converted by molar mass.

The term MBC denotes the smallest concentration meeting the test's criterion for killing. Lower therefore signals more potent killing.

As to `CCN(CC)[c+]1sc2c(s1)C(c1ccc(Br)cc1)Oc1ccccc1-2.F[B-](F)(F)F` (stereo not drawn), the values for the MIC in the assay with Staphylococcus aureus [1] (setting [5]) and with Escherichia coli [2] (setting [6]) were 1.95 µg/mL and 62.5 µg/mL, respectively. Also, the MBC with Staphylococcus aureus [3] was 1.95 µg/mL; with Escherichia coli [4], 125 µg/mL.
As to `CCN(CC)[c+]1sc2c(s1)C(c1ccc(I)cc1)Oc1ccc(F)cc1-2.F[B-](F)(F)F` (stereo not drawn), the MIC in the assay on Staphylococcus aureus [1] (setting [5]) was 1.95 µg/mL; with Escherichia coli [2] (setting [6]) it was 3.9 µg/mL. In addition, the MBC stood at 0.97 µg/mL in the assay with Staphylococcus aureus [3] and 7.81 µg/mL against Escherichia coli [4].
On to `C[S+](C)[O-]` [DIMETHYL SULFOXIDE], for which the MIC against Staphylococcus aureus [1] amounted to 250 uL/ml; with Escherichia coli [2], 125 uL/ml.
Turning to `CCN(CC)[c+]1sc2c(s1)C(c1ccc(F)cc1)Oc1ccc(Cl)cc1-2.F[B-](F)(F)F` (stereo not drawn), the MIC in the assay with Staphylococcus aureus [1] (setting [5]) came out at 1.95 µg/mL; in the assay on Escherichia coli [2] (setting [6]) it was 15.6 µg/mL. Also, the MBC in the assay on Staphylococcus aureus [3] is 3.9 µg/mL; against Escherichia coli [4] it was 15.6 µg/mL.
Consider `CCN(CC)[c+]1sc2c(s1)C(c1ccc(I)cc1)Oc1ccc(Cl)cc1-2.F[B-](F)(F)F` (stereo not drawn), for which the MIC was 0.24 µg/mL in the assay with Staphylococcus aureus [1] (setting [5]) and 1.95 µg/mL in the assay with Escherichia coli [2] (setting [6]). Further, the results for the MBC in the assay on Staphylococcus aureus [3] and against Escherichia coli [4] were 0.48 µg/mL and 0.97 µg/mL, respectively.
For `CCN(CC)[c+]1sc2c(s1)C(c1ccc(Br)cc1)Oc1ccc(F)cc1-2.F[B-](F)(F)F` (stereo not drawn), in that order: 1.95 µg/mL, 7.81 µg/mL, 7.81 µg/mL and 15.6 µg/mL.
In the case of `CCN(CC)[c+]1sc2c(s1)C(c1ccc(F)cc1)Oc1ccc(F)cc1-2.F[B-](F)(F)F` (stereo not drawn), the MIC in the assay on Staphylococcus aureus [1] (setting [5]) worked out at 7.81 µg/mL; in the assay with Escherichia coli [2] (setting [6]) it was 15.6 µg/mL. Further, the MBC against Staphylococcus aureus [3] was determined as 3.9 µg/mL; against Escherichia coli [4], 125 µg/mL.
In the same order, the values of `NC[C@H]1O[C@H](O[C@H]2[C@H](O)[C@@H](O[C@H]3O[C@H](CO)[C@@H](O)[C@H](N)[C@H]3O)[C@H](N)C[C@@H]2N)[C@H](O)[C@@H](O)[C@@H]1O` [KANAMYCIN] are 1.95 µg/mL (≈ 4.02 µM), 7.81 µg/mL (≈ 16.1 µM), 1.95 µg/mL (≈ 4.02 µM) and 7.81 µg/mL (≈ 16.1 µM).
In the same order, the values of `CCN(CC)[c+]1sc2c(s1)C(c1ccc(Cl)cc1)Oc1ccc(Cl)cc1-2.F[B-](F)(F)F` (stereo not drawn) are 0.24 µg/mL, 3.9 µg/mL, 0.48 µg/mL and 3.9 µg/mL.
Take `CCN(CC)[c+]1sc2c(s1)C(c1ccc(Cl)cc1)Oc1ccc(F)cc1-2.F[B-](F)(F)F` (stereo not drawn): the figures for the MIC with Staphylococcus aureus [1] (setting [5]) and in the assay with Escherichia coli [2] (setting [6]) were 3.9 µg/mL and 15.6 µg/mL, respectively. In addition, the MBC with Staphylococcus aureus [3] is 7.81 µg/mL; in the assay with Escherichia coli [4] it was 15.6 µg/mL.
Take `CCN(CC)[c+]1sc2c(s1)C(c1ccc(F)cc1)Oc1ccccc1-2.F[B-](F)(F)F` (stereo not drawn): the MIC in the assay on Staphylococcus aureus [1] (setting [5]) is 7.81 µg/mL; in the assay on Escherichia coli [2] (setting [6]), 125 µg/mL. Besides, the MBC worked out at 7.81 µg/mL against Staphylococcus aureus [3] and 125 µg/mL against Escherichia coli [4].
As to `CCN(CC)[c+]1sc2c(s1)C(c1ccc(Br)cc1)Oc1ccc(Cl)cc1-2.F[B-](F)(F)F` (stereo not drawn), the MIC in the assay with Staphylococcus aureus [1] (setting [5]) came out at 0.24 µg/mL; with Escherichia coli [2] (setting [6]) it was 3.9 µg/mL. Moreover, the MBC against Staphylococcus aureus [3] came to 3.9 µg/mL; in the assay on Escherichia coli [4], 1.95 µg/mL.
Turning to `CCN(CC)[c+]1sc2c(s1)C(c1ccccc1)Oc1ccccc1-2.F[B-](F)(F)F` (stereo not drawn), the MIC in the assay with Staphylococcus aureus [1] (setting [5]) and in the assay on Escherichia coli [2] (setting [6]) was 62.5 µg/mL in each case. The MBC in the assay with Staphylococcus aureus [3] and in the assay with Escherichia coli [4] was 250 µg/mL each time.
Take `CC1(C)S[C@@H]2[C@H](NC(=O)[C@H](N)c3ccccc3)C(=O)N2[C@H]1C(=O)O` [AMPICILLIN]: the MIC in the assay with Staphylococcus aureus [1] (setting [5]) and in the assay on Escherichia coli [2] (setting [6]) was 7.81 µg/mL (≈ 22.4 µM) each time.
Consider `CCN(CC)[c+]1sc2c(s1)C(c1ccc(Cl)cc1)Oc1ccccc1-2.F[B-](F)(F)F` (stereo not drawn), for which the MIC came out at 3.9 µg/mL in the assay with Staphylococcus aureus [1] (setting [5]) and 125 µg/mL in the assay on Escherichia coli [2] (setting [6]). Besides, the MBC was 7.81 µg/mL with Staphylococcus aureus [3] and 125 µg/mL against Escherichia coli [4].
`CCN(CC)[c+]1sc2c(s1)C(c1ccc(I)cc1)Oc1ccccc1-2.F[B-](F)(F)F` (stereo not drawn): the figures for the MIC with Staphylococcus aureus [1] (setting [5]) and with Escherichia coli [2] (setting [6]) were 0.97 µg/mL and 31.2 µg/mL, respectively. The minimum bactericidal concentration (MBC) in the assay on Staphylococcus aureus [3] was found to be 1.95 µg/mL; against Escherichia coli [4], 62.5 µg/mL.
As for `CCN(CC)[c+]1sc2c(s1)C(c1ccccc1)Oc1ccc(Cl)cc1-2.F[B-](F)(F)F` (stereo not drawn), the MIC with Staphylococcus aureus [1] (setting [5]) is 3.9 µg/mL; with Escherichia coli [2] (setting [6]) it was 62.5 µg/mL. Besides, the values for the MBC in the assay on Staphylococcus aureus [3] and in the assay with Escherichia coli [4] were 3.9 µg/mL and 125 µg/mL, respectively.
Regarding `CCN(CC)[c+]1sc2c(s1)C(c1ccccc1)Oc1ccc(F)cc1-2.F[B-](F)(F)F` (stereo not drawn), the results for the MIC in the assay on Staphylococcus aureus [1] (setting [5]) and in the assay on Escherichia coli [2] (setting [6]) were 7.81 µg/mL and 62.5 µg/mL, respectively. Also, the MBC in the assay on Staphylococcus aureus [3] came to 15.6 µg/mL; against Escherichia coli [4] it was 125 µg/mL.
